Reference: patent US20040038903A1, “Gonadotropin releasing hormone antagonists in gel-forming concentration” (priority 2001, published 2004)

How the values were obtained:
Serum Testosterone = assay: Efficacy of formulation in vivo: serum testosterone levels; details: 5 mg/ml in 5% mannitol, 100 μl/kg s.c., adult male Beagle dogs
Description: Peptide 1 is dissolved in 5% mannitol (5 mg/ml). Three adult male Beagle dogs are treated with this solution (100 μl/kg) by subcutaneous injection. Serum Testosterone levels are measured for the following 42 days. When Testosterone levels started to incline again the experiment was terminated.

Serum LH = assay: Efficacy of formulation in vivo: serum LH levels; details: 25 mg/ml in 5% mannitol, 80 μl/kg s.c., ovariectomised Rhesus monkeys
Description: Peptide 1 is dissolved in 5% mannitol (25 mg/ml). Three ovariectomised Rhesus monkeys are treated with this solution (80 μl/kg) by subcutaneous injection. Serum LH levels is measured for the following 101 days.

[1] = Stability of aqueous solution: gel formation by visual examination; type: physicochemical; details: room temperature
Description: Gel formation was determined by visual examination.

Substance: Ac-DNal-DCpa-DPal-Ser-Aph(L-Hor)-DAph(CONH2)-Leu-Lys(iPr)-Pro-DAla-NH2 [Peptide 1]
- Serum Testosterone, mean ± se (Serum Testosterone; Day 7): <0.2 nmol/L
- Serum Testosterone, mean ± se (Serum Testosterone; Day 14): <0.2 nmol/L
- Serum Testosterone, mean ± se (Serum Testosterone; Day 21): <0.2 nmol/L
- Serum Testosterone, mean ± se (Serum Testosterone; Day 28): <0.2 nmol/L
- Serum Testosterone, mean ± se (Serum Testosterone; Day 42): 3.3 ± 3 nmol/L
- Serum Testosterone, mean ± se (Serum Testosterone; Hour 4): <0.2 nmol/L
- Serum Testosterone, mean ± se (Serum Testosterone; Time 0): 13.8 ± 5.7 nmol/L
- Serum LH, mean ± se (Serum LH; Day 1): 10.5 ± 1.5 ng/mL
- Serum LH, mean ± se (Serum LH; Day 2): 11.8 ± 2.6 ng/mL
- Serum LH, mean ± se (Serum LH; Day 7): 6.7 ± 1.2 ng/mL
- Serum LH, mean ± se (Serum LH; Day 14): 5.8 ± 0.9 ng/mL
- Serum LH, mean ± se (Serum LH; Day 21): 6.6 ± 1.0 ng/mL
- Serum LH, mean ± se (Serum LH; Day 28): 9.4 ± 1.3 ng/mL
- Serum LH, mean ± se (Serum LH; Day 35): 8.8 ± 1.0 ng/mL
- Serum LH, mean ± se (Serum LH; Day 42): 11.8 ± 2.3 ng/mL
- Serum LH, mean ± se (Serum LH; Day 72): 29.5 ± 4.3 ng/mL
- Serum LH, mean ± se (Serum LH; Day 101): 48.9 ± 8.3 ng/mL
- Serum LH, mean ± se (Serum LH; Hour 6): 16.2 ± 1.9 ng/mL
- Serum LH, mean ± se (Serum LH; Time 0): 60.1 ± 7.5 ng/mL
- Stability (time to gel formation) ([1]; 0.25 mg/ml (calculated as free base) in water): No gel formation after 6 months
- Stability (time to gel formation) ([1]; 1.0 mg/ml (calculated as free base) in water): No gel formation after 6 months
- Stability (time to gel formation) ([1]; 5.0 mg/ml (calculated as free base) in water): Gel formation after 4 weeks
- Stability (time to gel formation) ([1]; 10.0 mg/ml (calculated as free base) in water): Gel formation after 2 weeks
- Stability (time to gel formation) ([1]; 30.0 mg/ml (calculated as free base) in water): Gel formation after 48 hours
- Stability (time to gel formation) ([1]; 40.0 mg/ml (calculated as free base) in water): Gel formation after 24 hours
- Stability (time to gel formation) ([1]; 60.0 mg/ml (calculated as free base) in water): Gel formation after 8 hours
- Stability (time to gel formation) ([1]; 80.0 mg/ml (calculated as free base) in water): Rapid gel formation within 60 minutes
- Stability (time to gel formation) ([1]; 120.0 mg/ml (calculated as free base) in water): Rapid gel formation within 30 minutes
